Assay results from patent US20110091375A1, “USE OF THE COMBINATION COMPRISING TEMOZOLOMIDE AND TNF-ALPHA FOR TREATING GLIOBLASTOMA” (THE UNIVERSITY OF CHICAGO, priority 2004, published 2011).
Entries after “also recorded” stand apart in the source; their conditions may differ.

Columns and labels:
p65 = experiment: TNFα-induced p65 phosphorylation (Western blot); assay type: cell-based, human
Procedure: (§1) 20 μg of whole U87 cell (or nuclear) lysate was subjected to sodium dodecyl sulfate (SDS)-polyacrylamide gel electrophoresis (PAGE). Following electro-transfer, Immobilon-P membranes (Millipore Corp. Burlington, Mass., USA.) were probed with primary polyclonal antibody against IκBα, phospho-Ser32-IκBα, SAPK/JNK, phospho-Thr183/Tyr185-SAPK/JNK, p65, phospho-Ser536-p65 (Cell Signaling Technology Inc. Beverly, […]., USA) diluted 1:1000 overnight at 4° C. Anti-rabbit IgG HRP-linked secondary antibody (Cell Signaling Technology) was diluted 1:1000 in blocking buffer and applied for 1 h at room temperature. Immunoreactive bands were detected by SuperSignal enhanced chemiluminescence (ECL) (Pierce, Rockford, Ill., USA) and exposed to Kodak X-Omat film.

NF-κB in glioma cells = experiment: IR- and TNFα-induced NF-κB activity and nuclear translocation; assay type: cell-based; details: co-treatment with TNFα and IR
[1] = system: NF-κB in U87 glioma cells; experiment: NF-κB-responsive luciferase reporter assay, U87; assay type: cell-based, human
Procedure: U87 cells (5×10^3) were plated overnight and subsequently co-transfected with Ig-κB-Luc (or pE425 GL3) and the Renilla reniformis expression vector, pRL-TK, to normalize transfection efficiency, at a ratio of 10:1 using SuperFectin transfection kit (Qiagen, Valencia, Calif., USA). Twenty-four hours after transfection, the cells were pretreated with TMZ (100 μM) for 16 h, then treated with TNFα (10 ng/mL). Five hours later NF-κB (or Egr-1) and Renilla luciferase activity were measured with the Dual-Luciferase reporter assay system (Promega Corp., Madison, Wis., USA). Relative luciferase was calculated as the ratio of firefly luminescence/Renilla luminescence for each sample.

IκBα = experiment: TNFα-induced IκBα degradation and phosphorylation (Western blot / kinase assay); assay type: cell-based, human
Procedure: Cells were then washed with 10 mL ice-cold PBS, scraped from the dish, and pelleted by centrifugation at 1000 rpm for 5 m at 4° C. Cell pellets were resuspended in 400 μl of ice-cold buffer A (10 mM HEPES, pH 7.9; 10 mM KCl; 0.1 mM EDTA; 1 mM DTT; 0.5 mM phenylmethysulfonylfluoride [PMSF]; 1 μg/mL leupeptin; 5 μg/mL aprotinin) and allowed to swell on ice for 15 m. Following the addition of 25 μl of 10% NP-40, the suspension was vortexed for 10 s and centrifuged at 14,500 rpm for 1 m at 4° C. Nuclei were resuspended in 50 μl of ice-cold buffer B (20 mM HEPES, pH 7.9; […]; 1 mM EDTA; 1 mM DTT; 1 mM PMSF; 25% glycerol; 1 μg/mL leupeptin; 5 μg/mL aprotinin) and incubated on ice for 15 m. The nuclear suspension was then centrifuged at 14,500 rpm for 5 m at 4° C. and the supernatant containing the nuclear proteins was transferred to a clean tube. Protein concentrations for each sample were determined by the Bradford method (Bio-Rad, Richmond, Calif., USA) and were adjusted to 2 μg/μl by the addition of buffer B.
as §1
IκK was immunoprecipitated from treated U87 cell extracts with anti-IKKβ antibody, (Santa Cruz Biotechnology, Santa Cruz, Calif., USA). […] Kinase activity was quantified using a Phosphoimager and Equal protein loading determined by immunoblotting with anti-IκKβ antibody (Upstate USA, Charlottesville, Va., USA). […]

[2] = system: U87 intracranial xenografts; experiment: Intracranial glioma xenograft survival; assay type: in vivo, nude mice; details: first intracranial experiment; TMZ 20 mg/kg total IP, single IC Ad.Egr-TNF
Procedure: Intracranial Studies: In two separate experiments, 5×10^5 U87 cells were inoculated into the right caudate nucleus on day 0 using a screw guide technique (Lal, S. et al. (2000) J Neurosurg 92:326-333). In the first experiment, mice were randomized into four groups as described above in Example 4. On day 5, a single intracranial (IC) injection of 5×10^8 pu Ad.Egr-TNF in 5 μl volume was made directly into the tumor using the screw guide technique. TMZ (5 mg/kg) was given IP 3 h after IC vector inoculation. Three additional IP TMZ injections were administered on consecutive days for a total dose of 20 mg/kg. Control animals received SFM IT and IP.
In a second experiment, mice were randomized into eight groups (untreated control (UTC); intratumoral (IT) Ad.Egr-TNF alone; intraperitoneal (IP) TMZ alone; IR alone; Ad.Egr-TNF and TMZ; Ad.Egr-TNF and IR; TMZ and IR; and Ad.Egr-TNF, TMZ and IR). A single dose of 5×10^5 U87 cells was inoculated into the right caudate nucleus of each mouse on day 0 using a screw guide technique (Lal, S. et al. (2000) J Neurosurg 92:326-333). On day 5, 5×10^8 pu Ad.Egr-TNF in 5 μL volume was injected once via the screw guide directly into the tumor. Beginning two hours after vector injection, 5 Gy IR was delivered to the tumor area and repeated every 2-3 days to a total of 30 Gy. […]

LD50 of IP TMZ = experiment: LD50 of IP TMZ; set-up: species or system mice; details: mouse, in vivo

**Q.** Which “TNFα-induced p65 phosphorylation” value (p65) does the source give for `Cn1nnc2c(C(N)=O)ncn2c1=O` [TMZ, temozolomide] here?
**A.** inhibits

**Q.** What about the “NF-κB transcriptional activity and nuclear translocation increased by TNFα and IR” value (NF-κB in glioma cells) of the same compound?
**A.** inhibited

**Q.** What about the “TNFα-induced NF-κB transcriptional activity” value ([1]; U87, TMZ pre-treatment) of the same compound?
**A.** dose dependent inhibition; also recorded: completely inhibited

**Q.** What about the “transcriptional activity of NF-κB, TMZ used alone” value ([1]; glioma cells, no TNFα) of the same compound?
**A.** slightly increases

**Q.** What about the “reduction of TNFα-induced phosphorylation of IκBα” value (IκBα; TMZ pretreatment, at 5 m) of the same compound?
**A.** 50%

**Q.** And the “degradation of IκBα” value (IκBα; at 15 m, TNFα with or without TMZ pretreatment)?
**A.** reduced TNFα-induced degradation

**Q.** What about the median survival [2] of the same compound?
**A.** 28 days

**Q.** What about the LD50 (LD50 of IP TMZ) of the same compound?
**A.** ~500 mg/kg
